Measurements taken from patent US20230054407A1, “OPTICAL BIOPSY STAIN PANELS AND METHODS OF USE” (ARIZONA BOARD OF REGENTS ON BEHALF OF THE UNIVERSITY OF …, priority 2020, published 2023).

Assays:
[1] = In vitro fluorescence emission spectra and compatibility of nucleic acid and protein/cytoplasm dyes; type: physicochemical; settings: for source of the resultant fluorescence emission signal of the mixture: Mitoxantrone mixed with Phloxine B at 100:1 molar ratio
Experimental: Additional incompatibility results from overlapping of the component peak emissions.
Daunorubicin (1 μM), Fluorescein (1 nM) and the combination of the two were excited at 375 nm, with resultant fluorescence emission.
With 405 nm excitation, Proflavine at 0.25 μM, Rose Bengal at 10 μM, and the combination result in roughly the same order of magnitude peaks resulting from their respective fluorescence.
FIGS. 8A-8F show emission spectra of various drug dye candidates. FIGS. 8A-8D show Mitoxantrone as a Hematoxylin-alternative candidate at 10 μM, with Phloxine B at 0.1 μM as an Eosin-alternative candidate drug-dye, and a combination of the two excited at different wavelengths: (FIG. 8A) 375 nm, (FIG. 8B) 405 nm, (FIG. 80) 455 nm, and (FIG. 8D) 488 nm. […] Additionally, there was overlap of emission spectra (FIG. 9) and the combination of certain DNA and protein dyes decreased the emission intensity relative to the same concentration of the component dye alone (FIG. 9 and FIG. 10).
The stain panels listed below use a combination of nucleus dyes and protein/cytoplasm dyes that have been optimized for their compatibility.

bovine lung tissue = assay: Topical drug-dye staining of ex vivo bovine lung tissue imaged with confocal microscopy; settings: for localization of drug-dye: ex vivo bovine lung tissue, qualitatively at the concentrations of FIGS. 2A-2D; for staining pattern: single dye applied topically to ex vivo bovine lung tissue, confocal microscopy
Text: Image field is 635.5 μm tall×wide. Inset is the structure of Proflavine.
Image field is 635.5 μm tall×wide. […]
Imaging was with confocal microscopy, with a bovine lung sample thickness of 10 μm, and an image field of 635.5 μm^2.
Imaging was with confocal microscopy settings at 488 nm excitation after topical application to the bovine lung specimen. Image field is 635.5 μm^2 at 10 μm thickness.
The dyes were pipetted in situ upon bovine tissue ex vivo and examined under confocal microscopy with a 488 nm laser with 10 μm optical thickness and imaged fields being 635.5 μm^2.
Referring to FIG. 1, 50 μl at 20 μM of Proflavine was topically applied directly to ex vivo bovine lung tissue in situ and imaged immediately with confocal microscopy. […] Likewise, Fluorescein, Phenol Red, Phloxine B, and Rose Bengal were each added to ex vivo bovine lung tissue and imaged under confocal microscopy (see FIGS. 2A-2I). […] This combination was then added topically to bovine lung tissue and imaged using confocal microscopy (FIG. 3). […]

[2] = test system: human breast cancer metastasized to the lung; assay: Staining of human breast cancer metastasized to the lung with Rose Bengal and Proflavine; settings: Rose Bengal and Proflavine combined, concentrations similar to FIG. 6A

Row | Compound | Approximate peak fluorescence [1] [nm] | staining pattern (bovine lung tissue) | further results
1 | CN(C)c1ccc2nc3ccc(=[N+](C)C)cc-3sc2c1 [Methylene Blue] | ~695 |  | 
2 | O=C([O-])c1c(Cl)c(Cl)c(Cl)c(Cl)c1-c1c2cc(I)c(=O)c(I)c-2oc2c(I)c([O-])c(I)cc12.[Na+].[Na+] [Rose Bengal] | ~565 | variable staining of the proteinaceous connective tissue and cellular cytoplasm, granules or vesicles | localization of drug-dye (bovine lung tissue): appeared to localize to cell cytoplasm in addition to the connective tissue fibers; structure outlined by the stain [2]: proteins
3 | O=C1c2c(O)ccc(O)c2C(=O)c2c(NCCNCCO)ccc(NCCNCCO)c21 [Mitoxantrone] | ~685 |  | concentration dependence of fluorescence ([1]; 455 nm excitation): concentration-dependent fluorescence; source of the resultant fluorescence emission signal of the mixture ([1]; 375 nm excitation): primarily Mitoxantrone
4 | COc1cccc2c1C(=O)c1c(O)c3c(c(O)c1C2=O)C[C@@](O)(C(C)=O)C[C@@H]3O[C@H]1C[C@H](N)[C@H](O)[C@H](C)O1 [Daunorubicin] |  |  | change of fluorescence emission peak with increasing concentrations of Phloxine B ([1]; 488 nm excitation, peak around 590 nm): progressive decrease of fluorescence emission
5 | Nc1c(/N=N/c2ccc(-c3ccc(/N=N/c4cc(S(=O)(=O)O)c5ccccc5c4N)cc3)cc2)cc(S(=O)(=O)O)c2ccccc12 [Congo Red] | ~425 |  | 
6 | Nc1ccc2cc3ccc(N)cc3nc2c1 [Proflavine] | ~508 | staining like those typical of a fluorescent DNA dye | structure outlined by the stain [2]: nucleus
7 | O=C([O-])c1c(Cl)c(Cl)c(Cl)c(Cl)c1-c1c2cc(Br)c(=O)c(Br)c-2oc2c(Br)c([O-])c(Br)cc12.[Na+].[Na+] [Phloxine B] | ~550 | variable staining of the proteinaceous connective tissue and cellular cytoplasm, granules or vesicles | localization of drug-dye (bovine lung tissue): appeared to localize to cell cytoplasm in addition to the connective tissue fibers; source of the resultant fluorescence emission signal of the mixture ([1]; 488 nm excitation): nearly all the fluorescence emission signal from Phloxine B
